From patent publication US20070225212A1, “Use of a peptide” (priority 1992, published 2007)
Ends that are not written are not given here.

Experiments:
[1] = tested on: isolated precultured rat pancreatic islets; details: in the presence of glucose, dose-dependent; cited from earlier work
[2] = tested on: diabetic as well as nondiabetic subjects; details: cited from earlier work
[3] = tested on: patients with NIDDM and secondary failure to sulfonylurea treatment; assay: Example 2: basal state and standard lunch study in patients with secondary failure to sulfonylurea treatment; format: in vivo, human; details: for Insulinogenic index (integrated insulin/integrated glucose response): after ingestion of the meal; for Insulinogenic index (integrated insulin/integrated glucose response) / Blood glucose: GLP-1(7-36)amide 0.75 pmol/kg/min, glibenclamide 1 mg i.v., 8 NIDDM patients with sulfonylurea failure
[4] = tested on: insulin treated obese NIDDM patients; assay: Example 1: standard test meal study, meal-related C-peptide response, glucagon response and IMIR; format: in vivo, human; details: GLP-1(7-36)amide 0.75 pmol/kg/min infusion for 210 min, glibenclamide 1 mg i.v., 6 insulin treated obese NIDDM patients
[5] = tested on: healthy volunteers; details: peptide infused into healthy volunteers; cited from earlier work
[6] = basal state, 45 minutes after start of administration

Compound: GLP-1(1-36)amide: amide of a fragment of GLP-1 comprising amino acid residues 1 to 36 (HDEFERHAEGTFTSDVSSYLEGQAAKEFIAWLVKGR-NH2; UniProt P01275 92-127, looked up, fragment)
- insulin release [1]: stimulates insulin release

Compound: GLP-1(7-37): Peptide of formula I with X = Gly-OH; residues 7 to 37 of GLP-1 (HAEGTFTSDVSSYLEGQAAKEFIAWLVKGRG-OH; UniProt P01275 98-128, looked up, fragment)
- insulinotropic action [2]: has been demonstrated

Compound: COc1ccc(Cl)cc1C(=O)NCCc1ccc(S(=O)(=O)NC(=O)NC2CCCCC2)cc1 [glibenclamide]
- Insulinogenic index (integrated insulin/integrated glucose response) [3]: 10.6 ± 2.8,
- effect on blood glucose and C-peptide levels (in words) [3, 6]: no significant effect on its own
- Blood glucose [3, 6]: 6.0 ± 0.3 mmol/L
- Glucagon response [4]: no significant effect

Compound: GLP-1(7-36)amide: Peptide of formula I, His-Ala-Glu-Gly-Thr-...-Lys-Gly-Arg-X with X = NH2; fragment of glucagon-like peptide-1
- Insulinogenic index (integrated insulin/integrated glucose response) [3]: 21.0 ± 7.2,
- Blood glucose [3, 6]: 5.1 ± 0.4 mmol/L
- plasma insulin [5]: significant rise in plasma insulin
